Test results as given in patent US6444681B1, “Methods and compositions for treating Raynaud's Phenomenon and scleroderma” (The Ohio State University Research Foundation, priority 2000, dated 2002).
Where two headings read alike, the source gives them in different places.

Molecular target: Mouse Tail Artery
Assay: Antagonism of UK 14,304-induced vasoconstriction in isolated pressurised distal mouse tail artery
Type: cell-based
Text: Male mice (C57BL6) were euthanized by CO2 asphyxiation. Proximal and/or distal segments of tail artery were then rapidly removed and placed in cold Krebs-Ringer bicarbonate solution (in mM): 118.3 NaCl, 4.7 KCl, 1.2 MgSO4, 1.2 KH2PO4, 2.5 CaCl2, 25.0 NaHCO3, 11. glucose (control solution). The small arteries were cannulated at both ends with glass micropipettes, secured using 12-0 nylon monofilament suture and placed in a microvascuiar chamber (Living Systems, Burlington, Vt.). The arteries were maintained at a constant transmural pressure of 60 mmHg in the absence of flow. The chamber was superfused with control solution and maintained at 37° C., pH 7.4, and gassed with 16% O2-5% CO2-balance N2. The chamber was placed on the stage of an inverted microscope (X20, Nikon TMS-F, Japan) connected to a video camera (Panasonic, CCTV camera, Japan). The vessel image was projected onto a video monitor and the internal diameter continuously determined by a video dimension analyzer (Living Systems Instrumentation, Burlington Vt.) and monitored using a BIOPAC (Santa Barbara, Calif.) data acquisition system (Gateway Dimensions Pentium Computer).
Small arteries were allowed to equilibrate for 30-40 min at a transmural pressure (PTM) of 60 mmHg before addition of α1 and α2-AR agonists and antagonists. Concentration-effect curves to the selective α1-AR agonist, phenylephrine, or the selective α2-AR agonist, UK 14,304 (brimonidine, 5-bromo-N-(4,5-dihydro-1H-imidazol-2-yl)-6-quinoxalinamine) were generated by increasing the concentration of the agonists in half-log increments, once the constriction to the previous concentration had stabilized. Following completion of the concentration-effect curve, the influence of the agonists was terminated by repeatedly exchanging the buffer solution and allowing the artery to return to its stable baseline level.
To evaluate the effect of selective α2-AR antagonists on vasoconstriction, concentration-effect curves to UK 14,304 were determined under control conditions and in the presence of the selective α2A-AR antagonist, BRL 44408 (100 and 1000 nM), the selective α2B-AR antagonist ARC 0239 (50 nM) or the selective α2C-AR antagonist MK 912 (0.3 nM) (Table 1). When these receptor antagonists were used, the preparations were incubated for 30 min with the drugs prior to, and also during, exposure of the arteries to the agonists. When analyzing the influence of cold on α-AR responsiveness, the temperature of the superfusate was decreased to 28° C. for 30 min prior to commencing a concentration effect curve to the constrictor agonists. This provides sufficient time for the effect of cold on adrenergic reactivity to stabilize.
Vasomotor responses were expressed as a percentage change in internal diameter (ID) prior to administrating the agent. Because of the phasic behavior of the vasomotion in distal. tail arteries, the signal was electronically averaged (BIOPAC software, smoothing factor of 2000) in order to obtain diameter measurements. Functional data is expressed as means±SEM for n number of experiments, where n equals the number of animals from which blood vessels were studied. Antagonist dissociation constants (KD) were determined either from Arunlakshana and Schild plots or according to the formula: KD=[Ant]/(CR-1), where [Ant] is the concentration of antagonist, and CR the ratio of agonist-concentrations producing equal responses in the presence and absence of the antagonist. […] Statistical evaluation of the data was performed by Student's t-test for either paired or unpaired observations. When more than two means were compared, analysis of variance was used. If a significant F value was found, Scheffe's test for multiple comparisons was employed to identify differences among groups. Values were considered to be statistically different when P was less than 0.05.

## CN1CCC2(CCN3CCc4c(oc5ccccc45)C3C2)N(C)C1=O (centres unmarked) [MK 912]
28° C. (cold), n=4
  −log KD: 10.9±0.17
28° C. (cold), n=4, read-out: KD
  Kd: 0.014 nM
28° C. (cold), versus UK 14,304, distal tail artery, read-out: KD Mouse Tail Artery 28° C.
  Kd: > 0.014 nM
28° C. versus 37° C., UK 14,304
  effect on cold-induced amplification of the α2-AR response: selectively abolished
37° C. (warm), versus UK 14,304, distal tail artery, read-out: KD Mouse Tail Artery 37° C.
  Kd: > 0.3 nM
Based on the Table 1 KD, antagonist at 0.3 nM
  expected shift in concentration-effect curves generated by α2C-AR stimulation: ~6 fold
Cold (28° C.), BRL 44408 100 and 1000 nM, ARC 0239 50 nM, MK912 3×10^−10M
  effect on vasoconstrictor response to UK 14,304: dramatically inhibited
Warm temperatures (37° C.), BRL 44408 100 and 1000 nM, ARC 239 50 nM, MK 912 0.3 nM
  effect on vasoconstriction to the α2-AR agonist UK 14,304: not inhibited
